According to article PMC12335538 (2025):

Test system: 62 CA8 (RNA, riboswitch) GGAGACCGAAAGCUGGGGACGACCCCAGAAAGACCAAAAGCUGGGGACGACCCCAGAAAGACCGA
Assay: in-line probing
Conditions: 20 mM MgCl2, 100 mM KCl; 50 mM Tris pH 8.3, room temperature, 48 h; apparent; mean of three replicates; Hill 1.50 ± 0.3

KD: 111 ± 3 µM
Structure (SMILES): N=C(N)N
